Patent publication US11945816B2, “Inhibitors of EGFR and/or HER2 and methods of use” (Dana-Farber Cancer Institute, Inc., priority 2017, dated 2024)

How the values were obtained:
Type in all cases: cell-based
[1] = target: T1, wild-type EGFR transformed Ba/F3 cells (Homo sapiens, UniProt P00533); experiment: Western blot, EGFR phosphorylation, wild-type EGFR Ba/F3 cells; settings: indicated concentrations, 6 hours of treatment
T1 construct: expressed in transfected cells; host or cells: Ba/F3
Experimental: (§4) Cells are seeded and grow in culture plates, and then treated with representative compounds of the application the following day for various duration. Cells are washed with PBS and lysed.
(§5) Cells were plated at 5×10^5 cells per well in 6-well plates and treated with representative compounds of the application the following day. After 6 hours of treatment, cells were washed with PBS and lysed with NP40 buffer (Calbiochem®) supplemented with Complete™ Mini protease inhibitor and PhosSTOP™ phosphatase inhibitors (Rocheg).
(§6) Western blot analysis was then performed on the cells. The cells were plated at 5×10^5 cells per well in 6-well plates and treated with the indicated concentrations of the compound.
(§7) After 6 hours of treatment, cells were washed with PBS and lysed with NP40 buffer (Calbiochem) supplemented with Complete Mini protease inhibitor and PhosSTOP phosphatase inhibitors (Roche).

[2] = target: T2, EGFR InsGY (D770delinsGY) transformed Ba/F3 cells (Homo sapiens, UniProt P00533, D770Y/INS769G); experiment: Proliferation inhibition assay, EGFR InsGY transformed Ba/F3 cells; settings: MTS assay, 72 hours
T2 construct: expressed in transfected cells; host or cells: Ba/F3
Experimental: (§1) Cell growth inhibition can be assessed by MTS assay or by Cell Titer Glo Luminescent Cell viability assay (Promega®). Cells are seeded and grow in culture plates before they are exposed to representative compounds of the application for various duration. The viability of the cells are then assessed. […] The growth curves can be fitted using a nonlinear regression model with sigmoidal dose response.
(§2) Cell growth inhibition was assessed by MTS assay for Ba/F3, DFCI58-229, and DFCI127c cells, or by Cell Titer Glo Luminescent Cell viability assay (Promega®) for DFC1362JC cells, 3000 Ba/F3 cells were seeded for per well in 96-well plates, and were exposed to representative compounds of the application (3.3 nM to 10 μM) for 72 hours. For DFCI58-229, DFCI127c, and DFC1362JC cells, 5000 cells were seeded per well. All experimental points included 6 to 12 wells. […] The growth curves were fitted using a nonlinear regression model with sigmoidal dose response.
(§3) Activities of representative compounds of the present application in inhibiting EGFR and HER2 were tested by MTS assay (for Ba/F3 cell, DFCI58-229 cell, and DFCI127c cells) or by CellTiter-Glot luminescent cell viability assay (for DFCI362JC cells). For assays with Ba/F3 cells, 3000 cells were seeded for per well in 96-well plates and were exposed to indicated compounds with a concentration of 3.3 to 10 μM for 72 hours. For assays with DFCI58-229 cell, DFCI127c cell, or DFCI362JC cell, 5000 cells were seeded per well in 96-well plates and were exposed to indicated compounds with a concentration of 3.3 to 10 μM for 72 hours.

[3] = target: T3, HER2 InsVC (G776delinsVC) transformed Ba/F3 cells (Homo sapiens, UniProt P04626, G776C/INS775V); experiment: Proliferation inhibition assay, HER2 InsVC transformed Ba/F3 cells; settings: MTS assay, 72 hours, Table 9 key
T3 construct: expressed in transfected cells; host or cells: Ba/F3
Experimental: as §1, §2, §3

[4] = target: mutant EGFR T790M/exon19del transformed Ba/F3 cells (Homo sapiens, UniProt P00533, T790M, cells depend on it, form not given); experiment: Proliferation inhibition assay, EGFR T790M/exon19del transformed Ba/F3 cells
[5] = target: T4, mutant EGFR L858R transformed Ba/F3 cells (Homo sapiens, UniProt P00533, L858R); experiment: Proliferation inhibition assay, EGFR L858R transformed Ba/F3 cells
T4 construct: expressed in transfected cells; host or cells: Ba/F3

[6] = target: T5, mutant EGFR T790M/L858R transformed Ba/F3 cells (Homo sapiens, UniProt P00533, L858R/T790M); experiment: Proliferation inhibition assay, EGFR T790M/L858R transformed Ba/F3 cells
T5 construct: expressed in transfected cells; host or cells: Ba/F3

[7] = target: T6, HER2 InsWLV transformed Ba/F3 cells (Homo sapiens, UniProt P04626, INS773WL/M774V); experiment: Proliferation inhibition assay, HER2 InsWLV transformed Ba/F3 cells; settings: MTS assay, 72 hours, Table 9 key
T6 construct: expressed in transfected cells; host or cells: Ba/F3
Experimental: as §1, §2, §3

[8] = target: mutant EGFR Exon19del transformed Ba/F3 cells (Homo sapiens, UniProt P00533, cells depend on it, form not given); experiment: Proliferation inhibition assay, EGFR Exon19del transformed Ba/F3 cells
[9] = target: T7, wild-type HER2 transformed Ba/F3 cells (Homo sapiens, UniProt P04626); experiment: Proliferation inhibition assay, wild-type HER2 transformed Ba/F3 cells; settings: MTS assay, 72 hours, Table 9 key
T7 construct: expressed in transfected cells; host or cells: Ba/F3
Experimental: as §1, §2, §3

[10] = target: T8, EGFR InsHH (Y764_V765insHH) transformed Ba/F3 cells (Homo sapiens, UniProt P00533, INS764HH); experiment: Proliferation inhibition assay, EGFR InsHH transformed Ba/F3 cells; settings: MTS assay, 72 hours
T8 construct: expressed in transfected cells; host or cells: Ba/F3
Experimental: as §1, §2, §3

[11] = target: T9, EGFR InsH transformed Ba/F3 cells (Homo sapiens, UniProt P00533, DUP773-773); experiment: Proliferation inhibition assay, EGFR InsH transformed Ba/F3 cells; settings: MTS assay, 72 hours
T9 construct: expressed in transfected cells; host or cells: Ba/F3
Experimental: as §1, §2, §3

[12] = target: T10, EGFR InsGY transformed Ba/F3 cells (Homo sapiens, UniProt P00533, D770Y/INS769G); experiment: Western blot, EGFR phosphorylation, EGFR InsGY Ba/F3 cells; settings: indicated concentrations, 6 hours of treatment
T10 construct: expressed in transfected cells; host or cells: Ba/F3
Experimental: as §4, §5, §6, §7

[13] = target: T11, EGFR InsSVD transformed Ba/F3 cells (Homo sapiens, UniProt P00533, INS770SVD); experiment: Western blot, EGFR phosphorylation, EGFR InsSVD Ba/F3 cells; settings: indicated concentrations, 6 hours of treatment
T11 construct: expressed in transfected cells; host or cells: Ba/F3
Experimental: as §4, §5, §6, §7

[14] = target: T12, HER2 InsGSP (P780_Y781insGSP) transformed Ba/F3 cells (Homo sapiens, UniProt P04626, INS780GSP); experiment: Proliferation inhibition assay, HER2 InsGSP transformed Ba/F3 cells; settings: MTS assay, 72 hours, Table 9 key
T12 construct: expressed in transfected cells; host or cells: Ba/F3
Experimental: as §1, §2, §3

[15] = target: T13, EGFR InsASV (V769_D770insASV) transformed Ba/F3 cells (Homo sapiens, UniProt P00533, INS769ASV); experiment: Proliferation inhibition assay, EGFR InsASV transformed Ba/F3 cells; settings: MTS assay, 72 hours
T13 construct: expressed in transfected cells; host or cells: Ba/F3
Experimental: as §1, §2, §3

[16] = target: T14, EGFR InsSVD (D770_N771insSVD) transformed Ba/F3 cells (Homo sapiens, UniProt P00533, INS770SVD); experiment: Proliferation inhibition assay, EGFR InsSVD transformed Ba/F3 cells; settings: MTS assay, 72 hours
T14 construct: expressed in transfected cells; host or cells: Ba/F3
Experimental: as §1, §2, §3

[17] = target: T1, wild-type EGFR transformed Ba/F3 cells; experiment: Proliferation inhibition assay, wild-type EGFR transformed Ba/F3 cells; settings: MTS assay, 72 hours
Experimental: as §1, §2, §3

[18] = target: T15, EGFR InsNPG (D770_N771insNPG) transformed Ba/F3 cells (Homo sapiens, UniProt P00533, INS770NPG); experiment: Proliferation inhibition assay, EGFR InsNPG transformed Ba/F3 cells; settings: MTS assay, 72 hours
T15 construct: expressed in transfected cells; host or cells: Ba/F3
Experimental: as §1, §2, §3

[19] = target: T16, HER2 InsYVMA (A775_G776insYVMA) transformed Ba/F3 cells (Homo sapiens, UniProt P04626, INS775YVMA); experiment: Proliferation inhibition assay, HER2 InsYVMA transformed Ba/F3 cells; settings: MTS assay, 72 hours, Table 9 key
T16 construct: expressed in transfected cells; host or cells: Ba/F3
Experimental: as §1, §2, §3

T16 sequence (P04626 with tags, fused parts or gaps INS775YVMA): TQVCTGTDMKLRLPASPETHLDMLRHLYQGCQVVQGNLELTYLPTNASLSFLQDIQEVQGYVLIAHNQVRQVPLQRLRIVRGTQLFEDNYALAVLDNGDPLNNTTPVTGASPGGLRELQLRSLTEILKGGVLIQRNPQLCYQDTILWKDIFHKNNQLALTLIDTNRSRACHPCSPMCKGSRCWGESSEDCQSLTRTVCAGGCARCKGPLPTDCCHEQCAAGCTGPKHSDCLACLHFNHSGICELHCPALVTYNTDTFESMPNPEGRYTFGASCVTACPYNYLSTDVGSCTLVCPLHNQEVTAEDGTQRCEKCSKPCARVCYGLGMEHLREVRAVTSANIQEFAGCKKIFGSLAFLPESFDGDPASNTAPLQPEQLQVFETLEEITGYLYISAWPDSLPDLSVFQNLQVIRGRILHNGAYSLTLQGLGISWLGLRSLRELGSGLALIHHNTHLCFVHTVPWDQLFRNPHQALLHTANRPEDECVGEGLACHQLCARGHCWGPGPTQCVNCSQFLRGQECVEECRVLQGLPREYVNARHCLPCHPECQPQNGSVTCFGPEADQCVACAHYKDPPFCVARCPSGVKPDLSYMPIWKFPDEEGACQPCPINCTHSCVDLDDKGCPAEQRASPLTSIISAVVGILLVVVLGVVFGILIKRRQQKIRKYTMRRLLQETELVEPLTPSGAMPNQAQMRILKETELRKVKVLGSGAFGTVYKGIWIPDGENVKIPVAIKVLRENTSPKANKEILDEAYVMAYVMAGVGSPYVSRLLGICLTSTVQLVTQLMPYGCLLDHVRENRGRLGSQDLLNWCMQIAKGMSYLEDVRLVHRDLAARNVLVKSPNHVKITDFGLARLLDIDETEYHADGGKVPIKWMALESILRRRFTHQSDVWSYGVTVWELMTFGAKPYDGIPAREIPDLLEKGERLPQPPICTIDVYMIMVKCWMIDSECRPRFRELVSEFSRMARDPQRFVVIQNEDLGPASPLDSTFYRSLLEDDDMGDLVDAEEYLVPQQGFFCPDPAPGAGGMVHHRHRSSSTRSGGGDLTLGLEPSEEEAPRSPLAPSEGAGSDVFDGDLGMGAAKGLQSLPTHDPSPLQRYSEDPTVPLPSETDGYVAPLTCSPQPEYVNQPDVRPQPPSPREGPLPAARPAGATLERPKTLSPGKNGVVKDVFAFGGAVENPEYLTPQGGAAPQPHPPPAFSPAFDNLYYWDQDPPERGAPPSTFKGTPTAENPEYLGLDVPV
T6 sequence (P04626 with tags, fused parts or gaps INS773WL/M774V): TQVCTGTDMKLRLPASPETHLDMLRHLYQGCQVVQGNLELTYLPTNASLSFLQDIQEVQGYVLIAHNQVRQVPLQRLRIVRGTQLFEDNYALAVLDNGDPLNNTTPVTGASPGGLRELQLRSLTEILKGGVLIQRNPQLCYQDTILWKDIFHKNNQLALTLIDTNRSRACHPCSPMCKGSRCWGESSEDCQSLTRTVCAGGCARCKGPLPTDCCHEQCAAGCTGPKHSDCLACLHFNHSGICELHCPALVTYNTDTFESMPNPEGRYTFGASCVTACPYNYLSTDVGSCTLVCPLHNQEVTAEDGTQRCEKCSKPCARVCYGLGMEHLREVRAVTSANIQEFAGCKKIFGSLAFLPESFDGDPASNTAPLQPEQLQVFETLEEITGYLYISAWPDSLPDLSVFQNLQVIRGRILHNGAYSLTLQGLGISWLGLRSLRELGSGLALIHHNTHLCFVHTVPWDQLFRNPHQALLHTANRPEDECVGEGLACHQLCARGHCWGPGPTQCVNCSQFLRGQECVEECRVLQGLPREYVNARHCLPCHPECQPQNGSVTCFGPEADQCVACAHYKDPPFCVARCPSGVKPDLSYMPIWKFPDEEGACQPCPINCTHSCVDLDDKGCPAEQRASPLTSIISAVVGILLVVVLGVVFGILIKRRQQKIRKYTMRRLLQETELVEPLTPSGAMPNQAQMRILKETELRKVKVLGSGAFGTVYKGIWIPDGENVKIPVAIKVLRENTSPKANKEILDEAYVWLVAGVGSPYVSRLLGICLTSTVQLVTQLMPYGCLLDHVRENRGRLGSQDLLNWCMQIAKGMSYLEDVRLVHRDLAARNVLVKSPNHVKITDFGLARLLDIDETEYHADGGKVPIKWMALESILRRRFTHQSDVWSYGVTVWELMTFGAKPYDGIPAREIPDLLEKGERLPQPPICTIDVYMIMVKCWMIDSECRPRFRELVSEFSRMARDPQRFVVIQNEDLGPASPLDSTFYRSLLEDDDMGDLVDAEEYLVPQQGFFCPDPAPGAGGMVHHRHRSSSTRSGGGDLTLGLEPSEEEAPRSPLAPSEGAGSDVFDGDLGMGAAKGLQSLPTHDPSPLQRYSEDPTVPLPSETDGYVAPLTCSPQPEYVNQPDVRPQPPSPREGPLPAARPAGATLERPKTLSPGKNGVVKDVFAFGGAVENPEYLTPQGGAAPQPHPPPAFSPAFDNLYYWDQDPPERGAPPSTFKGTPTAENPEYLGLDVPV
T12 sequence (P04626 with tags, fused parts or gaps INS780GSP): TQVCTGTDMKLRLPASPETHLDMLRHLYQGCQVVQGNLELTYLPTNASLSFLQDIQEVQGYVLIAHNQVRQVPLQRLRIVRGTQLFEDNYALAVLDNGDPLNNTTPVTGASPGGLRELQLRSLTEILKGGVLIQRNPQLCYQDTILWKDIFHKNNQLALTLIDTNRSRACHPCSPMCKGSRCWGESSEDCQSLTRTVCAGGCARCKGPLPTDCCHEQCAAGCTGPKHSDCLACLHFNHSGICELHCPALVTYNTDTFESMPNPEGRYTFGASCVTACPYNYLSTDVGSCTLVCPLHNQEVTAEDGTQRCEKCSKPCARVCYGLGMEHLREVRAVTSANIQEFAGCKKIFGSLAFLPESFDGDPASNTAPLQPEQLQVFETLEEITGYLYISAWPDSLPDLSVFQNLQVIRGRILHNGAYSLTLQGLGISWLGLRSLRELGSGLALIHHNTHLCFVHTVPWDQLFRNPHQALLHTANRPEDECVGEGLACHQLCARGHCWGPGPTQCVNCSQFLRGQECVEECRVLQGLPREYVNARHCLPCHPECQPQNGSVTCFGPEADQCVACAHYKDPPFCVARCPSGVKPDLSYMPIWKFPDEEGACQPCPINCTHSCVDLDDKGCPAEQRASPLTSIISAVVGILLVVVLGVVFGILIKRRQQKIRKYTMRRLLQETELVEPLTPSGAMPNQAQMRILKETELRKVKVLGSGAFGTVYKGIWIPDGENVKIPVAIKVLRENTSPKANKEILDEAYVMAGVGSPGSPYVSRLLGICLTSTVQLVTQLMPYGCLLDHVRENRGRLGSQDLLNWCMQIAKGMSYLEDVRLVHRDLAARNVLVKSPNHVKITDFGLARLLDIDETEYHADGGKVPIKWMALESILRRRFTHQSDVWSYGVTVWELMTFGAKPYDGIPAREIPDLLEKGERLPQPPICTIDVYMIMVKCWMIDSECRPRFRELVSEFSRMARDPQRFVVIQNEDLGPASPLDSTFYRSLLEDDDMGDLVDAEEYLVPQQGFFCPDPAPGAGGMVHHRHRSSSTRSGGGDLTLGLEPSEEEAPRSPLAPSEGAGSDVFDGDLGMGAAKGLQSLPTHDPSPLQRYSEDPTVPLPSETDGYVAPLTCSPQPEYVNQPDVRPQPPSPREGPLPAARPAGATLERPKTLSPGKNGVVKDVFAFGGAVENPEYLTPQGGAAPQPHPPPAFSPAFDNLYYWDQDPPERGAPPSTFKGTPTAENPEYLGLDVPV
T3 sequence (P04626 with tags, fused parts or gaps INS775V/G776C): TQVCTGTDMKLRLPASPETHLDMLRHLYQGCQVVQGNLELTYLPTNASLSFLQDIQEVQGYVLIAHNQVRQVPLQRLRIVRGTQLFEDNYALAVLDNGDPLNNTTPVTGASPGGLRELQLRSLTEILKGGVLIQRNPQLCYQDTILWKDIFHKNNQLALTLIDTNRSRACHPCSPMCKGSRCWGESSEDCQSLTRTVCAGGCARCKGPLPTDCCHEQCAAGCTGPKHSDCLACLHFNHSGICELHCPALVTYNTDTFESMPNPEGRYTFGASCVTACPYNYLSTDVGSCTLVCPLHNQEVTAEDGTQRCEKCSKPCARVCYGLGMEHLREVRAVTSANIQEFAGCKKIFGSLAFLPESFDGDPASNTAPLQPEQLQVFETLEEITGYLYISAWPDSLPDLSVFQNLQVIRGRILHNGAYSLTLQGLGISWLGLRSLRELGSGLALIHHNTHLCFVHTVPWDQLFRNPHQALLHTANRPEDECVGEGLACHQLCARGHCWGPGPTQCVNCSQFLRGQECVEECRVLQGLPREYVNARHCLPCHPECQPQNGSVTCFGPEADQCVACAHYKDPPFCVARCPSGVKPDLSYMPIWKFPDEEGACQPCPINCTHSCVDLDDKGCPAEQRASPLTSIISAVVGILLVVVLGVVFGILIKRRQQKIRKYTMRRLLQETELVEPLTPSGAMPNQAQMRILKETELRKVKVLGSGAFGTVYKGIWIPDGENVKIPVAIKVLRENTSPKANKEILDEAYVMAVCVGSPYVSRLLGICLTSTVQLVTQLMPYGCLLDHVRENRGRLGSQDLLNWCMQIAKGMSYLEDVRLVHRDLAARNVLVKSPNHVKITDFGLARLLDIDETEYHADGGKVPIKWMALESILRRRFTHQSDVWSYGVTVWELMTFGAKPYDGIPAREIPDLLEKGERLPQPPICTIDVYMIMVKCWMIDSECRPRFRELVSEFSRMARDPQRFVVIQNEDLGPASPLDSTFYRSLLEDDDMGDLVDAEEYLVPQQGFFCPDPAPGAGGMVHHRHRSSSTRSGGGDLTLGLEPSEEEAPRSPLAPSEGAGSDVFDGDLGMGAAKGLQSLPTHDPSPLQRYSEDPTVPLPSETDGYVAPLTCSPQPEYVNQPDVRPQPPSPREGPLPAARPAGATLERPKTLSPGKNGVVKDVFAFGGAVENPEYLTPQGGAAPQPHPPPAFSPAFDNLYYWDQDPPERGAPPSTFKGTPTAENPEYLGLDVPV

Compound: C=CC(=O)Nc1cccc(-n2c(=O)c(Oc3ccc(F)cc3F)cc3cnc(Nc4cnn(C)c4)nc32)c1 [Compound 2]
- EGFR phosphorylation (Western blot, FIG. 1) [1]: decrease in EGFR phosphorylation
- EC50 [2]: < 200 nM
- EC50 [3]: < 100 nM
- EC50 [4]: < 100 nM
- EC50 [5]: < 100 nM
- EC50 [6]: < 100 nM
- EC50 [7]: < 100 nM
- EC50 [8]: < 100 nM
- EC50 [9]: < 100 nM
- EC50 [10]: < 200 nM
- EC50 [11]: < 200 nM
- EGFR phosphorylation (Western blot, FIG. 1) [12]: decrease in EGFR phosphorylation
- EGFR phosphorylation (Western blot, FIG. 1) [13]: decrease in EGFR phosphorylation
- EC50 [14]: < 100 nM
- EC50 [15]: < 200 nM
- EC50 [16]: < 200 nM
- EC50 [17]: < 200 nM
- EC50 [18]: < 200 nM
- EC50 [19]: < 100 nM

Compound: C=CC(=O)N1CCC[C@@H](n2c(=O)c(Oc3ccc(F)cc3F)cc3cnc(Nc4cnn(C)c4)nc32)C1 [Compound 15, (R)-8-(1-acryloylpiperidin-3-yl)-6-(2,4-difluorophenoxy)-2-((1-methyl-1H-pyrazol-4-yl)amino)pyrido[2,3-d]pyrimidin-7(8H)-one]
- EC50 [2]: < 200 nM
- EC50 [3]: < 100 nM
- EC50 [7]: 100 to 250 nM
- EC50 [9]: < 100 nM
- EC50 [10]: 200 to 600 nM
- EC50 [11]: > 1000 nM
- EC50 [14]: < 100 nM
- EC50 [15]: < 200 nM
- EC50 [16]: < 200 nM
- EC50 [17]: < 200 nM
- EC50 [18]: < 200 nM
- EC50 [19]: < 100 nM

Compound: C=CC(=O)Nc1cccc(-n2c(=O)c(Oc3ccc(F)cc3F)cc3cnc(Nc4cnn(C5CCN(C)CC5)c4)nc32)c1 [Compound 3]
- EC50 [2]: < 200 nM
- EC50 [3]: 100 to 250 nM
- EC50 [7]: 100 to 250 nM
- EC50 [9]: < 100 nM
- EC50 [10]: 200 to 600 nM
- EC50 [11]: 200 to 600 nM
- EC50 [14]: < 100 nM
- EC50 [15]: < 200 nM
- EC50 [16]: < 200 nM
- EC50 [17]: < 200 nM
- EC50 [18]: < 200 nM
- EC50 [19]: < 100 nM

Compound: C=CC(=O)Nc1cccc(-n2c(=O)c(Oc3ccc(F)cc3F)cc3cnc(Nc4ccc(N5CCC(N6CCN(C)CC6)CC5)cc4)nc32)c1 [Compound 7]
- EC50 [2]: < 200 nM
- EC50 [3]: 100 to 250 nM
- EC50 [7]: 100 to 250 nM
- EC50 [9]: < 100 nM
- EC50 [10]: < 200 nM
- EC50 [11]: 200 to 600 nM
- EC50 [14]: < 100 nM
- EC50 [15]: < 200 nM
- EC50 [16]: < 200 nM
- EC50 [17]: < 200 nM
- EC50 [18]: < 200 nM
- EC50 [19]: < 100 nM

Compound: C=CC(=O)Nc1cccc(-n2c(=O)c(Oc3ccc(F)cc3F)cc3cnc(Nc4cn(C)nc4OCC)nc32)c1 [Compound 8]
- EC50 [2]: < 200 nM
- EC50 [3]: < 100 nM
- EC50 [7]: < 100 nM
- EC50 [9]: < 100 nM
- EC50 [10]: < 200 nM
- EC50 [11]: < 200 nM
- EC50 [14]: < 100 nM
- EC50 [15]: < 200 nM
- EC50 [16]: < 200 nM
- EC50 [17]: < 200 nM
- EC50 [18]: < 200 nM
- EC50 [19]: < 100 nM

Compound: C=CC(=O)N1CCC[C@@H](n2c(=O)c(Oc3ccc(F)cc3F)cc3cnc(Nc4cnn(C5CCN(C)CC5)c4)nc32)C1 [Compound 17]
- EC50 [2]: < 200 nM
- EC50 [3]: < 100 nM
- EC50 [7]: 250 to 500 nM
- EC50 [9]: < 100 nM
- EC50 [10]: 200 to 600 nM
- EC50 [11]: 600 to 1000 nM
- EC50 [14]: < 100 nM
- EC50 [15]: < 200 nM
- EC50 [16]: < 200 nM
- EC50 [17]: < 200 nM
- EC50 [18]: < 200 nM
- EC50 [19]: < 100 nM

Compound: C=CC(=O)Nc1cccc(-n2c(=O)c(Oc3ccc(F)cc3F)cc3cnc(Nc4cnn(C(F)F)c4)nc32)c1 [Compound 5]
- EC50 [2]: < 200 nM
- EC50 [3]: 100 to 250 nM
- EC50 [7]: 100 to 250 nM
- EC50 [9]: < 100 nM
- EC50 [10]: < 200 nM
- EC50 [11]: < 200 nM
- EC50 [14]: < 100 nM
- EC50 [15]: < 200 nM
- EC50 [16]: < 200 nM
- EC50 [17]: < 200 nM
- EC50 [18]: < 200 nM
- EC50 [19]: < 100 nM

Compound: C=CC(=O)Nc1cccc(-n2c(=O)c(Oc3ccc(F)cc3F)cc3cnc(Nc4cn(C)nc4OC)nc32)c1 [Compound 4]
- EC50 [2]: < 200 nM
- EC50 [3]: < 100 nM
- EC50 [7]: < 100 nM
- EC50 [9]: < 100 nM
- EC50 [10]: < 200 nM
- EC50 [11]: < 200 nM
- EC50 [14]: < 100 nM
- EC50 [15]: < 200 nM
- EC50 [16]: < 200 nM
- EC50 [17]: < 200 nM
- EC50 [18]: < 200 nM
- EC50 [19]: < 100 nM
